From patent US20070015662A1, “Herbicide/safener combination” (Bayer CropScience GmbH, priority 2005, published 2007)

Test system: Sinapis alba, Chrysanthemum segetum, Avena sativa, Stellaria media, Echinochloa crus-galli, Lolium multiflorum, Setaria viridis, Abutilon theophrasti …
Test: Pre-emergence action against weeds (greenhouse pot test, optical scoring)
Format: in vivo, monocotyledonous and dicotyledonous weed plants
Settings: pre-emergence method; 500 g or less of herbicide (A) per hectare; herbicide/safener combination with safeners II-1, II-9, III-1, b-11, b-14, IX-A3; scored after 3 to 4 weeks
Excerpt: Seeds or rhizome pieces of monocotyledonous and dicotyledonous weed plants were placed in sandy loam soil in cardboard pots and covered with soil. The active compounds (A) and (B), formulated in the form of wettable powders or emulsion concentrates, were then applied to the surface of the covering soil in various dosages as aqueous suspensions or emulsions using a water application rate of 300 to 800 I/ha (converted).
After the treatment, the pots were placed in a greenhouse and kept under good growth conditions for the weeds. Optical scoring of the damage to the plants or emerged plants was carried out after emergence of the test plants after a trial period of 3 to 4 weeks, in comparison to untreated controls. As shown by the results, the tested herbicide/safener combinations have good herbicidal pre-emergence activity against a broad spectrum of weed grasses and broad-leaved weeds.

| Compound | herbicidal activity against harmful plants (optical scoring of damage vs untreated controls) |
| --- | --- |
| CCC1(C)CC(S(=O)(=O)Cc2cccc3c2OCCO3)=NO1 (stereo not shown) [I-21.2] | very good herbicidal activity |
| CCC1(C)CC(S(=O)(=O)Cc2cc(F)ccc2F)=NO1 (stereo not shown) [I-2.2] | very good herbicidal activity |
| Cn1nc(C(F)(F)F)c(CS(=O)(=O)C2=NOC(C)(C)C2)c1OC(F)F [I-67.1] | very good herbicidal activity |
| CC1(C)CC(S(=O)(=O)Cc2c(F)cccc2F)=NO1 [I-3.1] | very good herbicidal activity |
| Cn1nc(C(F)(F)F)c(CS(=O)(=O)C2=NOC(C)(C)C2)c1Cl [I-77.1] | very good herbicidal activity |
| CC1(C)CC(S(=O)(=O)Cc2cccc3c2OCC3)=NO1 [I-24.1] | very good herbicidal activity |
| CCC1(C)CC(S(=O)(=O)Cc2cccc3c2OC(F)(F)C(F)(F)O3)=NO1 (stereo not shown) [I-22.2] | very good herbicidal activity |
| CCC1(C)CC(S(=O)(=O)Cc2cccc3c2OCC3)=NO1 (stereo not shown) [I-24.2] | very good herbicidal activity |
| CCC1(C)CC(S(=O)(=O)Cc2c(F)cccc2F)=NO1 (stereo not shown) [I-3.2] | very good herbicidal activity |
| CCC1(C)CC(S(=O)(=O)Cc2cc3c(cc2Cl)OCO3)=NO1 (stereo not shown) [I-52.2] | very good herbicidal activity |
| CC1(C)CC(S(=O)(=O)Cc2cccc3c2OC(F)(F)C(F)(F)O3)=NO1 [I-22.1] | very good herbicidal activity |
| CC1(C)CC(S(=O)(=O)Cc2cc3c(cc2Cl)OCO3)=NO1 [I-52.1, 3-{[(6-Chloro-1,3-benzodioxol-5-yl)methyl]sulfonyl}-5,5-dimethyl-4,5-dihydroisoxazole] | very good herbicidal activity |
| CCC1(C)CC(S(=O)(=O)Cc2cccc3c2OC(F)(F)O3)=NO1 (stereo not shown) [I-23.2] | very good herbicidal activity |
| CC1(C)CC(S(=O)(=O)Cc2cccc3c2OC(F)(F)O3)=NO1 [I-23.1] | very good herbicidal activity |
| CCC1(C)CC(S(=O)(=O)Cc2c(C(F)(F)F)nn(C)c2OC(F)F)=NO1 (stereo not shown) [I-67.2] | very good herbicidal activity |
| CC1(C)CC(S(=O)(=O)Cc2cccc3c2OCCO3)=NO1 [I-21.1] | very good herbicidal activity |

Test system: Sinapis alba, Echinochloa crus-galli, Lolium multiflorum, Chrysanthemum segetum, Setaria viridis, Abutilon theophrasti, Amaranthus retroflexus, Panicum …
Test: Post-emergence action against weeds (greenhouse pot test, visual scoring)
Format: in vivo, monocotyledonous and dicotyledonous weeds
Settings: post-emergence method, three-leaf stage; 500 g or less of herbicide (A) per hectare; herbicide/safener combination with safeners II-1, II-9, III-1, b-11, b-14, IX-A3; scored after about three to four weeks
Protocol: Seeds or rhizome pieces of monocotyledonous and dicotyledonous weeds were placed into sandy loam soil in plastic pots, covered with soil and grown in a greenhouse under good growth conditions. Three weeks after sowing, the test plants were treated at the three-leaf stage. The compounds according to the invention, formulated as wettable powders or as emulsion concentrates, were sprayed onto the green parts of the plants at various dosages using a water application rate of 300 to 800 I/ha (converted). The test plants were stood in the greenhouse under optimum growth conditions for about three to four weeks, and the action of the preparations was then scored visually in comparison to untreated controls. Post-emergence, too, the herbicide/safener combinations according to the invention have good herbicidal activity against a broad spectrum of economically important weed grasses and broad-leaved weeds.

| Compound | herbicidal activity against harmful plants (visual scoring vs untreated controls) |
| --- | --- |
| CCC1(C)CC(S(=O)(=O)Cc2cccc3c2OCCO3)=NO1 (stereo not shown) [I-21.2] | very good herbicidal activity |
| CCC1(C)CC(S(=O)(=O)Cc2cc(F)ccc2F)=NO1 (stereo not shown) [I-2.2] | very good herbicidal activity |
| Cn1nc(C(F)(F)F)c(CS(=O)(=O)C2=NOC(C)(C)C2)c1OC(F)F [I-67.1] | very good herbicidal activity |
| CC1(C)CC(S(=O)(=O)Cc2c(F)cccc2F)=NO1 [I-3.1] | very good herbicidal activity |
| Cn1nc(C(F)(F)F)c(CS(=O)(=O)C2=NOC(C)(C)C2)c1Cl [I-77.1] | very good herbicidal activity |
| CC1(C)CC(S(=O)(=O)Cc2cccc3c2OCC3)=NO1 [I-24.1] | very good herbicidal activity |
| CCC1(C)CC(S(=O)(=O)Cc2cccc3c2OC(F)(F)C(F)(F)O3)=NO1 (stereo not shown) [I-22.2] | very good herbicidal activity |
| CCC1(C)CC(S(=O)(=O)Cc2cccc3c2OCC3)=NO1 (stereo not shown) [I-24.2] | very good herbicidal activity |
| CCC1(C)CC(S(=O)(=O)Cc2c(F)cccc2F)=NO1 (stereo not shown) [I-3.2] | very good herbicidal activity |
| CCC1(C)CC(S(=O)(=O)Cc2cc3c(cc2Cl)OCO3)=NO1 (stereo not shown) [I-52.2] | very good herbicidal activity |
| CC1(C)CC(S(=O)(=O)Cc2cccc3c2OC(F)(F)C(F)(F)O3)=NO1 [I-22.1] | very good herbicidal activity |
| CC1(C)CC(S(=O)(=O)Cc2cc3c(cc2Cl)OCO3)=NO1 [I-52.1, 3-{[(6-Chloro-1,3-benzodioxol-5-yl)methyl]sulfonyl}-5,5-dimethyl-4,5-dihydroisoxazole] | very good herbicidal activity |
| CCC1(C)CC(S(=O)(=O)Cc2cccc3c2OC(F)(F)O3)=NO1 (stereo not shown) [I-23.2] | very good herbicidal activity |
| CC1(C)CC(S(=O)(=O)Cc2cccc3c2OC(F)(F)O3)=NO1 [I-23.1] | very good herbicidal activity |
| CCC1(C)CC(S(=O)(=O)Cc2c(C(F)(F)F)nn(C)c2OC(F)F)=NO1 (stereo not shown) [I-67.2] | very good herbicidal activity |
| CC1(C)CC(S(=O)(=O)Cc2cccc3c2OCCO3)=NO1 [I-21.1] | very good herbicidal activity |

Test system: cotton, oilseed rape, sugar beet and Gramineae crops such as barley, wheat, rye, millet, corn or rice
Test: Compatibility with crop plants (greenhouse, visual scoring)
Format: in vivo
Settings: pre-emergence method or post-emergence method; herbicide/safener combination with safeners II-1, II-9, III-1, b-11, b-14, IX-A3; four to five weeks after application
Excerpt: In further greenhouse trials, seeds of a relatively large number of crop plants and weeds were placed into sandy loam soil and covered with soil. Some of the pots were immediately treated as described in Section 1, the others were placed in a greenhouse until the plants had developed two to three true leaves and were then sprayed with various dosages of the herbicide/safener combinations according to the invention, as described in Section 2.

| Compound | damage to crop plants (visual scoring) |
| --- | --- |
| CCC1(C)CC(S(=O)(=O)Cc2cccc3c2OCCO3)=NO1 (stereo not shown) [I-21.2] | did not cause any damage |
| CCC1(C)CC(S(=O)(=O)Cc2cc(F)ccc2F)=NO1 (stereo not shown) [I-2.2] | did not cause any damage |
| Cn1nc(C(F)(F)F)c(CS(=O)(=O)C2=NOC(C)(C)C2)c1OC(F)F [I-67.1] | did not cause any damage |
| CC1(C)CC(S(=O)(=O)Cc2c(F)cccc2F)=NO1 [I-3.1] | did not cause any damage |
| Cn1nc(C(F)(F)F)c(CS(=O)(=O)C2=NOC(C)(C)C2)c1Cl [I-77.1] | did not cause any damage |
| CC1(C)CC(S(=O)(=O)Cc2cccc3c2OCC3)=NO1 [I-24.1] | did not cause any damage |
| CCC1(C)CC(S(=O)(=O)Cc2cccc3c2OC(F)(F)C(F)(F)O3)=NO1 (stereo not shown) [I-22.2] | did not cause any damage |
| CCC1(C)CC(S(=O)(=O)Cc2cccc3c2OCC3)=NO1 (stereo not shown) [I-24.2] | did not cause any damage |
| CCC1(C)CC(S(=O)(=O)Cc2c(F)cccc2F)=NO1 (stereo not shown) [I-3.2] | did not cause any damage |
| CCC1(C)CC(S(=O)(=O)Cc2cc3c(cc2Cl)OCO3)=NO1 (stereo not shown) [I-52.2] | did not cause any damage |
| CC1(C)CC(S(=O)(=O)Cc2cccc3c2OC(F)(F)C(F)(F)O3)=NO1 [I-22.1] | did not cause any damage |
| CC1(C)CC(S(=O)(=O)Cc2cc3c(cc2Cl)OCO3)=NO1 [I-52.1, 3-{[(6-Chloro-1,3-benzodioxol-5-yl)methyl]sulfonyl}-5,5-dimethyl-4,5-dihydroisoxazole] | did not cause any damage |
| CCC1(C)CC(S(=O)(=O)Cc2cccc3c2OC(F)(F)O3)=NO1 (stereo not shown) [I-23.2] | did not cause any damage |
| CC1(C)CC(S(=O)(=O)Cc2cccc3c2OC(F)(F)O3)=NO1 [I-23.1] | did not cause any damage |
| CCC1(C)CC(S(=O)(=O)Cc2c(C(F)(F)F)nn(C)c2OC(F)F)=NO1 (stereo not shown) [I-67.2] | did not cause any damage |
| CC1(C)CC(S(=O)(=O)Cc2cccc3c2OCCO3)=NO1 [I-21.1] | did not cause any damage |

Test system: not given
Test: not given
Settings: not given

| Compound | melting point [°C] |
| --- | --- |
| CC1(C)CC(S(=O)(=O)Cc2cc3c(cc2Cl)OCO3)=NO1 [I-52.1, 3-{[(6-Chloro-1,3-benzodioxol-5-yl)methyl]sulfonyl}-5,5-dimethyl-4,5-dihydroisoxazole] | 170 |
